The record followed here is ChEMBL document CHEMBL1201862, “PubChem BioAssay data set” (2004).

For experiment [1], the target named is T1, Polyadenylate-binding protein 1 (Homo sapiens, UniProt P11940). Kind of experiment: MLLE binding blockers, Cy5 peptide tracer – biochemical, fluorescence polarization, Cy5-PAM2 peptide, secondary, miRNA deadenylation inhibitor project, dose response (AID 602260). In kind it is functional. Particulars: read-out: IC50_Mean.
In experiment [2] the target is T1, Polyadenylate-binding protein 1. Put plainly: MLLE domain peptide-binding blockers, IC50 – biochemical, fluorescence polarization, FITC-PAM2 peptide, dose response (AID 602259). It is filed as functional. Particulars: read-out: IC50_Mean. (Polarisation of emitted light reports the rotation of a fluorescent probe.)
A short description of experiment [3]: viability of uninfected HEp-2 cells – cell-based, HTS, cytotoxicity control for RSV inhibitor project, dose response (AID 2410). The settings on record: human respiratory syncytial virus. It is filed as functional.
For a further experiment, the system named is H9c2. Put plainly: cells. In kind it is functional, cell-based. The settings on record: Rattus norvegicus, H9c2, Myocardium.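 Also: confirmatory concentration-response retest of ultra-high-throughput screening hits for modulation of myocardial damage; cell death induced by hydrogen peroxide oxidative stress; compound pretreatment for 60 min then peroxide exposure for 2 h; potency is for protecting the cells against peroxide damage rather than for killing them.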
Experiment [4] in a line: HEK-293T cell viability reduction – luminescence, B-cell screen hits, cytotoxicity control for BCR NF-kB inhibitor project, dose response (AID 489021).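 Also: HEK-293T cells carrying an NF-kB luciferase reporter; cells exposed to compound for about 14 hours before viability readout.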 In kind it is functional, cell-based.
In experiment [5] the target is T2, Corticotropin-releasing factor receptor 2/Corticotropin-releasing factor-binding protein (Homo sapiens, UniProt P24387+Q13324).
T2 sequence (Q13324 whole entry): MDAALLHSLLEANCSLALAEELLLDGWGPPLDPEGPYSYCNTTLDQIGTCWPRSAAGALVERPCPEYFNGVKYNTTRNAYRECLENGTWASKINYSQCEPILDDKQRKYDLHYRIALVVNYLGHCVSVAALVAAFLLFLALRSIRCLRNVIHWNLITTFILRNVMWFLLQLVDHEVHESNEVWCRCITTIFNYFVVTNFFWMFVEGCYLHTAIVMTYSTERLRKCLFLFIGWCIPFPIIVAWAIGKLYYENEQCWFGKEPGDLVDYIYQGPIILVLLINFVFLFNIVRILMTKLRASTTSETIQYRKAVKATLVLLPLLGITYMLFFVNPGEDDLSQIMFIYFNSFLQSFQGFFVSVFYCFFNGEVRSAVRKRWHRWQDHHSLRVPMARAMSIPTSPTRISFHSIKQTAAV
T2 sequence (P24387 whole entry): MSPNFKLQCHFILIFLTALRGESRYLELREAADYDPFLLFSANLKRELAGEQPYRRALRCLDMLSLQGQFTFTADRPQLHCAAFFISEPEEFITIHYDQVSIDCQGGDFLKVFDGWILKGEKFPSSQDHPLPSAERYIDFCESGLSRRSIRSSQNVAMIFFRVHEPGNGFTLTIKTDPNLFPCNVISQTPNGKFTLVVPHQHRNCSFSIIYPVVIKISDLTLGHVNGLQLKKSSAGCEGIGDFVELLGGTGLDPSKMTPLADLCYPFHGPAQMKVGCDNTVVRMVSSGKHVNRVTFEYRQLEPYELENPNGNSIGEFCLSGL
Kind of experiment: Dose Response confirmation of uHTS hits for small molecule antagonists of the CRF-binding protein and CRF-R2 receptor complex. In kind it is functional. The settings on record: read-out: IC50_Mean.

Experiment [6] concerns the target T2, Corticotropin-releasing factor receptor 2/Corticotropin-releasing factor-binding protein. Put plainly: activators of CRF receptor 2 with binding protein – uHTS hits, confirmation (AID 602473). It is filed as functional. The settings on record: read-out: EC50_Mean.
Experiment [7] can be described thus: microbe, parasite or virus in culture. It is filed as functional. The settings on record: Mycobacterium tuberculosis.
Experiment [8] is described as follows: luciferase reporter signal suppression in cells – H4 neuroglioma cells, luminescence, dose response (AID 1990). It is filed as functional, cell-based.
Experiment [9] can be described thus: Trypanosoma cruzi growth suppression in host cells – NIH3T3 host cells, beta-gal luminescence, confirmation (AID 2044).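 Also: intracellular parasites grown in NIH/3T3 mouse fibroblasts as host cells; luminescent beta-galactosidase reporter signal from transgenic T. cruzi replicating inside host cells; inhibitors lower the luminescence signal.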 In kind it is functional, cell-based.
Experiment [10] in a line: alpha-synuclein stem-loop luciferase translation blockers – H4 neuroglioma cells, luminescence, confirmation (AID 1988). In kind it is functional, cell-based.
In experiment [11] the test system is Streptococcus sp. 'group A'. Put plainly: Streptococcus pyogenes SK(-)GAS viability under kanamycin – luminescence, BacTiterGlo, confirmation, counter-screen for streptokinase expression inhibitor project, dose response (AID 1900). It is filed as functional, organism-based. A general note: A counterscreen serves to expose hits that act by an unwanted route or on another target.

Experiment [12] is described as follows: Luminescence Cell-Based Dose Response HTS to Identify Inhibitors of 5'UTR Stem-Loop Driven Prion Protein mRNA Translation in H4 Neuroglioblastoma Cells. [Related pubchem assays: 1827 (Project Summary), 1813 (Primary HTS)]. In kind it is functional.
Experiment [13] is described as follows: NIH3T3 cell viability loss – ATP luminescence, mouse fibroblasts, counter-screen, dose response (AID 2010).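 Also: cells exposed to compound for about 90 hours before reading.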 In kind it is functional, cell-based.
Another experiment concerns Streptococcus. Kind of experiment: GAS UMAA2166 growth inhibition – luminescence, BacTiterGlo, counter-screen for streptokinase expression inhibitor project, dose response (AID 1915).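 Also: potency for reduction of bacterial viability or growth.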 It is filed as functional, organism-based.
The test system of the next experiment is INS1. Put plainly: INS-1E survival protection against cytokine death – cell-based, luminescence, retest, dose response (AID 449756).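 Also: cell death triggered by IL-1 beta plus TNF-alpha plus IFN-gamma mixture; protective hits raise ATP signal compared with cytokine alone wells.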 It is filed as functional. Particulars: Rattus norvegicus.
Experiment [14] can be described thus: Luminescence Cell-Based Dose Retest to Confirm Inhibitors of Cancer Stem Cells. [Related pubchem assays (depositor defined):AID2717, AID2721]. Particulars: Homo sapiens. It is filed as functional.
Another experiment deals with Nonstructural protein 1 (Influenza A virus, UniProt Q194T2). It is filed as functional, Influenza A virus (A/California/07/2009(H1N1)).
The nature of experiment [15]: viability of PTEN-deleted HCT116 cells – cell-based, HCT116 PTEN knockout, dose response (AID 1047).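 Also: HCT116 colon tumor cells with PTEN knocked out; cells exposed to compound for 60 hours before readout; potency for loss of cell viability measured by luminescence.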 It is filed as functional.
Experiment [16] can be described thus: viability of HCT116 lacking mutant beta-catenin – cell-based, human colon tumor, dose response (AID 1045).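 Also: HCT116 colon tumor cells with beta catenin knocked out; cells exposed to compound for 60 hours.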 In kind it is functional.
A further experiment concerns the target Cytochrome P450 2C9 (Homo sapiens, UniProt P11712).
For a further experiment, the target named is T3, Cytochrome P450 1A2 (Homo sapiens, UniProt P05177).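 Also: PubChem cytochrome P450 panel assay, CYP1A2 panel member.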
T3 sequence (P05177 whole entry): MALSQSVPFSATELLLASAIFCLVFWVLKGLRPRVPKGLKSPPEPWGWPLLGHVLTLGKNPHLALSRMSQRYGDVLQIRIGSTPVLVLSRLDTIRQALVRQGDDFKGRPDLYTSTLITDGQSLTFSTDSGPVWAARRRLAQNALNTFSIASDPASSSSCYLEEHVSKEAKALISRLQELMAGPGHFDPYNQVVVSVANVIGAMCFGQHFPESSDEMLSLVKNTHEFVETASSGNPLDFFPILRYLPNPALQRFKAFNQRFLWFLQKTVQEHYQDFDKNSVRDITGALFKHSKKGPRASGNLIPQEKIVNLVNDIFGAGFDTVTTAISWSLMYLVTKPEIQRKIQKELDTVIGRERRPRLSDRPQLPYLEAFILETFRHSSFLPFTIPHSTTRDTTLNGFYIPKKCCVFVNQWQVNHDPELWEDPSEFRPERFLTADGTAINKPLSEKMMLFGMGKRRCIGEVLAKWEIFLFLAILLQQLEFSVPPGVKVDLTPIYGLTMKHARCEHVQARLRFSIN

Activity calls are given as the source filed them.

Sequence of Nonstructural protein 1 (Q194T2 whole entry): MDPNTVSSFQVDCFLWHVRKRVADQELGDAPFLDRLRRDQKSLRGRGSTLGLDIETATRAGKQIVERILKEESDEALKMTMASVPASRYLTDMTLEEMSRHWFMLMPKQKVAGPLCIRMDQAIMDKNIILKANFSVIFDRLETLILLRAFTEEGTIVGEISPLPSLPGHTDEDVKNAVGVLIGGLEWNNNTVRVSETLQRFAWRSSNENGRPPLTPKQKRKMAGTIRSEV
T1 sequence (P11940 whole entry, the tested form may be a part): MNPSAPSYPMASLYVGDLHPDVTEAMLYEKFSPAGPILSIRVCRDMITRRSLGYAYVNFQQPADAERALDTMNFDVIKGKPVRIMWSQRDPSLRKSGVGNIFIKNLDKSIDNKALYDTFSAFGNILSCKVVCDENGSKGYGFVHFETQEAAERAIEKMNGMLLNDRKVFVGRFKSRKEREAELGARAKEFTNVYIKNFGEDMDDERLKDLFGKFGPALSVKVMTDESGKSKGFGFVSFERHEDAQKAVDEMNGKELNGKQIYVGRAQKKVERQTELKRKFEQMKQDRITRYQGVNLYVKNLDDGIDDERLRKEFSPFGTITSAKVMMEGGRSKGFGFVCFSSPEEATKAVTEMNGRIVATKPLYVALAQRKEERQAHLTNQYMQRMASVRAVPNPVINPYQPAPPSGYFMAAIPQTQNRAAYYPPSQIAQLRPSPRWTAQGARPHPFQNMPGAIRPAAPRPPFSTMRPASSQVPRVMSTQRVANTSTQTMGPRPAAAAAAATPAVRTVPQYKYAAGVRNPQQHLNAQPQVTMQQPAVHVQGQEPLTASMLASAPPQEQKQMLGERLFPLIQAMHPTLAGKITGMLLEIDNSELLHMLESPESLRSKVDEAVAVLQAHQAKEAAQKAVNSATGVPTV
Sequence of Cytochrome P450 2C9 (P11712 whole entry): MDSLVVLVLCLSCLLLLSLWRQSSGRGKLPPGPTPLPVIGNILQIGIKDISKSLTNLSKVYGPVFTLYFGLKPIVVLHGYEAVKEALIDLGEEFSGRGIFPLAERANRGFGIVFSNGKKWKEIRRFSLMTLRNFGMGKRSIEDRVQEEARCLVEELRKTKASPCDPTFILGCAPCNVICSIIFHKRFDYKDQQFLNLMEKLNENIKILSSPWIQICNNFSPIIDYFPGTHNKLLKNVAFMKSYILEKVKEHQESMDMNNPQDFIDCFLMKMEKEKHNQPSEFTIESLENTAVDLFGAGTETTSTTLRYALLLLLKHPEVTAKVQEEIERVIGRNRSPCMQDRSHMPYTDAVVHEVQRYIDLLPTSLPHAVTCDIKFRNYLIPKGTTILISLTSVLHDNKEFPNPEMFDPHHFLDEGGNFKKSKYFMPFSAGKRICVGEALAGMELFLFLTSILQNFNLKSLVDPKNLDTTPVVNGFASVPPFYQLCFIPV

As to `COc1ccc(CNc2ccc(S(N)(=O)=O)cc2)cc1`, the IC50 in [1] and in experiment [2] was > 66 µM (inactive) throughout.
Turning to `FC(F)(F)c1cccc(NC(S)=NN=C(S)NCc2ccccc2)c1`, the IC50 in experiment [1] and in experiment [2] was > 66 µM (inactive) in each case.
As to `CC(C)c1ccccc1NC(=O)c1cccc(NC(=O)c2ccccc2)c1`, the CC50 in experiment [3] was 20.3 µM (active).
With `O=C(c1cc2nc(-c3ccccc3)cc(-c3ccccc3)n2n1)N1CCN(C(=O)c2ccco2)CC1`, the IC50 was > 79 µM (inactive) with H9c2, 72.3 µM (inactive) in experiment [4] and > 47.1 µM (inactive) in [5]. The EC50 in [6] is > 53 µM (inactive).
Regarding `Cc1ccc(C2(c3ccc(C)cc3)CC2C(=O)Nc2ccc([N+](=O)[O-])cc2O)cc1` (stereo not given), the CC50 in [7] was 3.29 µM (active). For the same compound, the IC50 in experiment [4] is 33.8 µM (inactive). For the same compound, the EC50 is 10.1 µM (active) in [8]; 3.31 µM (active) in [9]; 9.29 µM (active) in experiment [10]; 2.34 µM (active) in experiment [11]; 13.7 µM (active) in experiment [12]; > 60 µM (not active) in [13]. Also, the EC50 in the experiment with Streptococcus is 4.17 µM (active). For the same compound, in the experiment on INS1, the AC50 (as a rule, the midpoint of the concentration-response curve, whichever way the signal moves) is 3.61 µM (active).
On to `CC(C)c1ccc(/C=N/N2CCN(c3ccccn3)CC2)cc1`, for which the CC50 in experiment [3] is 35.7 µM (active).
Take `COc1ccc(Br)cc1C(=O)NC(=S)Nc1cc(-c2nc3ccccc3[nH]2)ccc1C`: the IC50 in experiment [1] and in experiment [2] was > 66 µM (inactive) throughout. Moreover, in experiment [14], the AC50 is > 195 µM (inactive).
Consider `COC(=O)c1cc2c(-c3ccccc3)cc3ccccn3c-2c1C(=O)OC`, for which the values for the IC50 with H9c2 and on Nonstructural protein 1 were > 79 µM (inactive) and 19.2 µM (active), respectively.
As to `NC(=S)NN=Cc1nccc2ccccc12`, on Nonstructural protein 1, the IC50 is 2.03 µM (active).
Still for that read-out and setting: with `COc1cccc(N=Nc2ccc3ccccc3c2O)c1` the figure was 5.22 µM (active).
As for `CN(C)c1ccc([C@@H]2[C@@H]([N+](=O)[O-])[C@H]3C=Cc4ccccc4N3[C@H]2C(=O)c2ccc(Cl)cc2)cc1`, the IC50 at Nonstructural protein 1 is 26.5 µM (active).
Take `COc1ccc(OC)c(S(=O)(=O)Nc2ccc(-c3ccc4nnc(C)n4n3)cc2)c1`: in [4], the IC50 was > 80 µM (inactive).
In the case of `COc1ccccc1Nc1ncccc1[N+](=O)[O-]`, at Nonstructural protein 1, the IC50 is 29.9 µM (active).
Consider `COc1ccc(Nc2ccc(S(=O)(=O)N3CCCCC3)cc2[N+](=O)[O-])cc1OC`, for which the IC50 on Nonstructural protein 1 was 28.8 µM (active).
As for `COc1cccc(NC(=O)CSC(N)=O)c1`, the IC50 in [1] and in experiment [2] was > 66 µM (inactive) throughout.
With `Cc1onc(-c2ccccc2Cl)c1C(=O)Nc1sc2c(c1C(N)=O)CCC(C)C2` (stereo not given), in experiment [3], the CC50 was 19.3 µM (active).
Regarding `CCOC(=O)C1SC2(C(F)(F)F)CC1(O)c1c(C)cc(C)nc1O2` (stereo not given), the IC50 in experiment [1] and in experiment [2] was > 66 µM (inactive) in each case.
Take `O=C(O)CCC(C(=O)O)N1C(=O)/C(=C2/C(=O)Nc3ccccc32)SC1=S` (stereo not given): the IC50 in [1] and in experiment [2] was > 66 µM (inactive) each time.
With `C=CCN1C(=O)/C(=C\c2ccc(Cl)cc2)N=C1SCC(=O)NC1CCCCC1`, the IC50 in [1] and in experiment [2] was > 66 µM (inactive) in each case.
Turning to `COC(=O)c1cc(=O)n(Cc2ccc3c(c2)OCO3)/c(=N/c2ccc(F)cc2)s1`, the CC50 in [3] was 33.2 µM (active). Besides, the EC50 was 27.9 µM (active) in experiment [15] and 26.2 µM (active) in experiment [16].
As for `O=C(Nc1ccc2c(c1)Cc1ccccc1-2)c1cccnc1`, in [3], the CC50 is 20.3 µM (active).
`CC1CCN(C(=S)c2ccc(O)cc2)CC1`: the IC50 in [1] and in experiment [2] was > 66 µM (inactive) each time. For the same compound, the AC50 is 39.8 µM (inconclusive) at Cytochrome P450 2C9 and 14.1 µM (inconclusive) at Cytochrome P450 1A2.
Regarding `CC1CCN(CCCNC(=O)COc2cc(=O)n(C)c3ccccc23)CC1`, in experiment [4], the IC50 is > 80 µM (inactive).
With `Cc1c(NC(=O)/C=C/c2cn(-c3ccccc3)nc2-c2ccccc2)c(=O)n(-c2ccccc2)n1C`, the IC50 in [4] was > 80 µM (inactive).
Turning to `O=C(O)c1cc2c3ccccc3nc-2c[nH]1`, the IC50 at Nonstructural protein 1 is 5.27 µM (active).
On to `Cc1ccc(NC(=O)C2CCC(CNc3c(N4CCC(C)CC4)c(=O)c3=O)CC2)cc1F` (stereo not given), for which, in [4], the IC50 is > 80 µM (inactive). Also, the figures for the EC50 in experiment [8], in [10] and in experiment [12] were 11.5 µM (active), > 120 µM (not active) and > 120 µM (not active), respectively.
